Data taken from ChEMBL document CHEMBL1129808, “A novel photoaffinity label for the dopamine transporter based on N-substituted 3-[bis(4-fluorophenyl)methoxy]tropane” (Bioorg Med Chem Lett, 1997).

Target: Sodium-dependent dopamine transporter (Rattus norvegicus, UniProt P23977)
Test: The compound was tested for binding affinity towards dopamine transporter in rat caudate putamen
Assay type: tissue-based

Sequence of Sodium-dependent dopamine transporter (P23977 whole entry): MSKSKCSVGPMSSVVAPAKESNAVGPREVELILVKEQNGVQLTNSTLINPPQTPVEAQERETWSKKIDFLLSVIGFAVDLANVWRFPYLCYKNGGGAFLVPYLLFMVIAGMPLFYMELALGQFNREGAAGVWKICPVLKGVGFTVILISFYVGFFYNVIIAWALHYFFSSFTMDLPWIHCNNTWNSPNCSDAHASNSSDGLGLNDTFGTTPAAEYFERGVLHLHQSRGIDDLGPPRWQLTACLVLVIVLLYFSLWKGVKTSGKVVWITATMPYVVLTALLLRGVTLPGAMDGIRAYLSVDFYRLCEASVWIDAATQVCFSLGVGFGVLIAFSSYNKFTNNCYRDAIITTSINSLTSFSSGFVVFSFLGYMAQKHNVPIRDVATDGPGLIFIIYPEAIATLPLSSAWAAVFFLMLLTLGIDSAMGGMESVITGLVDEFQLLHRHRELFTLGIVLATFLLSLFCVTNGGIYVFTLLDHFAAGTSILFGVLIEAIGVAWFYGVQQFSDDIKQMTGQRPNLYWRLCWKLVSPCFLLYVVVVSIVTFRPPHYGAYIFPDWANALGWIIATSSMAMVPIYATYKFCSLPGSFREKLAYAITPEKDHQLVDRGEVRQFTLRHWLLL

| Structure (SMILES) | Ki |
| --- | --- |
| Nc1ccc(CCCCN2[C@@H]3CC[C@H]2C[C@@H](OC(c2ccc(F)cc2)c2ccc(F)cc2)C3)cc1 | 29.7 nM |
| [N-]=[N+]=Nc1ccc(CCCCN2[C@@H]3CC[C@H]2C[C@@H](OC(c2ccc(F)cc2)c2ccc(F)cc2)C3)cc1I | 159 nM |
